Laboratory results reported in patent publication US5610185A, “Method for the treatment of hyperproliferative epithelial skin diseases by topical application of hydroxylated aromatic protein cross-linking compounds” (The United States of America as represented by the …, priority 1995, dated 1997).
“Also recorded” adds a separate entry of the source.

Experiments:
[1] = tested on: HPV 18 infected human keratinocytes; experiment: Cornified envelope (cross-linked protein) assay, HPV 18 infected keratinocytes; format: cell-based; conditions: 48 h, 0.1-1 mM
From the text: (§1) FIG. 1. MC Increases Cross-linked Protein in Epidermal Cell Lines. Black squares represent HPV 18 human epithelial keratinocytes; black circles represent SV 40 infected human keratinocytes; black triangles represent (SQCC-Y1) cells; white triangles represent (SP-1) benign tumor mouse keratinocytes; white squares represent (308 cells) benign mouse keratinocytes; and white circles represent (I-7) cells mouse squamous cell carcinoma.
(§2) Primary mouse keratinocytes were isolated from BALB/c newborn mouse skin. Primary keratinocytes, the benign neoplastic keratinocyte cell lines 308 and SP-1 (Strickland et al, Cancer Res., 48, 165-169, 1988) and the mouse squamous cell carcinoma line 1-7 (Greenhalgh et al., Proc. Natl. Acad. Sci., 87, 643-647, 1990) were grown in Eagle's minimal essential medium with 8% fetal calf serum (FCS) (chelexed) and penicillin 20 iu/ml, streptomycin 20 ug/ml (P/S). Unless otherwise indicated, the Ca^2+ concentration in medium was adjusted to 0.05 mM (Hennings et al., Cells, 19, 245-254, 1980). […]
(§3) Cells were incubated with MC for 48 hours, then cross-linked protein was isolated and measured as described in Example 1.
(§4) The assay measures insoluble cross-linked protein envelopes as described (Hough-Monroe et al. Analytical biochem., 199, 25-28, 1991), with modifications as follows. […] Absorbance of eluate was measured on a Titertek plate reader at 600 nm.

EGF receptor = experiment: Western blot analysis of in vitro assay with EGF receptor; format: biochemical
[2] = tested on: SV 40 infected human keratinocytes; experiment: Cornified envelope (cross-linked protein) assay, SV 40 infected keratinocytes; format: cell-based; conditions: 48 h, 0.1-1 mM
From the text: as §1, §2, §3, §4

[3] = Hori et al., J. Antibiot., 45, 280-282, 1992; cited from earlier work
transglutaminase = experiment: Transglutaminase activity in primary mouse keratinocytes; format: cell-based
Description: FIG. 7. […] Black columns represent untreated cells in 1.4 mM Ca^2+ medium; and hatched columns represent cells treated with 1 mM MC. Cytosol is represented by "C" and membrane fractions are represented by "M". Results are ±SD (n=2) and were repeated in a similar experiment.
One embodiment of the present invention uses an erbstatin analog, methyl 2,5-dihydroxycinnamate, which forms cross-linked protein envelopes in normal and neoplastic epithelial cells by a mechanism independent of tyrosine kinase inhibition. Methyl 2,5-dihydroxycinnamate (MC) is a tyrosine kinase inhibitor. To assess its ability to induce epithelial cell differentiation, crosslinked protein envelopes were measured after a 48 h incubation with agent. […] To confirm differentiation, MC-treated mouse primary keratinocytes were tested for transglutaminase (TGase) activity, inhibition of protein cross-linking by the TGase inhibitor LTB-2 and HPB-2 and incorporation of the fluorescent TGase substrate dansylcadaverine into envelopes. […] This effect, in concert with growth inhibitory properties, may be useful clinically in the topical treatment of warts or superficial neoplasias of the skin.
Mouse primary keratinocytes were incubated in medium with 1.4 mM Ca^2+ for the indicated times. MC-induced cross-linking commences within 4 hours (see FIG. 3). […]

SMILES: COC(=O)C=Cc1cc(O)ccc1O [MC, methyl 2,5-dihydroxycinnamate]
- cross-linked protein (envelope production) [1]: induced crosslinked envelope production; also recorded: increased cross-linked protein in a dose-dependent manner
- MC-induced mobility retardation of the EGF receptor, effect of DTT (EGF receptor; DTT, Western blot): did inhibit MC-induced mobility retardation of the EGF receptor
- tyrosine kinase inhibition in presence of DTT (EGF receptor; effect of DTT on MC tyrosine kinase inhibition, in vitro): did not prevent tyrosine kinase inhibition
- cross-linked protein (envelope production) [2]: induced crosslinked envelope production; also recorded: increased cross-linked protein in a dose-dependent manner
- half life in serum [3]: short
- transglutaminase activity (transglutaminase; 1 mM MC, 4 hrs, cytosol and membrane fractions): not stimulated; also recorded: does not Increase Transglutaminase Activity
- involvement of transglutaminase in the mode of action (transglutaminase; TGase activity, TGase inhibitors LTB-2 and HPB-2, dansylcadaverine incorporation): refuted the involvement of TGase
